Experimental data reported in US20250128203A1, “MODIFIED REDOX-ACTIVE SORBENTS FOR ELECTROCHEMICAL CARBON DIOXIDE SEPARATION” (The Johns Hopkins University, priority 2023, published 2025).
Values joined by “and” are separate entries in the source; they are usually repeats but may differ in a detail not shown here. Equal values may be shown once. Read-outs that look alike come from different tables or passages of the source.

What was measured:
[1] = Cyclic voltammetry of isoindigos in DMF (half-wave redox potentials under N2 or CO2); type: physicochemical; details: for E1/2 (IId/IId·−) in N2: Table 1, first electron transfer, N2, DMF; for E1/2 in N2 (first): first half-wave potential vs. Fc^+/Fc; for E1/2 in N2 (first) / E1/2 in N2 (second) / E1/2 in CO2 (first or single) / E1/2 in CO2 (second): 2.5 mM in DMF; for E1/2 in N2 (first) / E1/2 in N2 (second): 0.1 M NBu4PF6, N2, 298 K; for E1/2 in N2 (second) / E1/2 in CO2 (second): second half-wave potential vs. Fc^+/Fc; for E1/2 in CO2 (first or single) / E1/2 in CO2 (second): 0.1 M NBu4PF6, CO2, 298 K
Experimental: (§1) Electrochemical measurements were conducted using a BioLogic VSP potentiostat (BioLogic Science Instruments). For the cyclic voltammetry measurements, glassy carbon (Ø=3 mm) was used as the working electrode, platinum wire was used as the counter electrode, silver wire was used as the pseudo-reference electrode and ferrocene was used as the internal reference. In a standard cyclic voltammetry measurement, the molecule of interest (2.5 mM) was dissolved in anhydrous DMF with 100 mM NBu4PF6 as the supporting salt. Typical cyclic voltammograms were collected at a scan rate of […]. To study the effects of ionic species on the redox behaviour of the sorbent molecules, 100 mM LiClO4, NaClO4, KClO4, NBu4ClO4, sodium triflate (NaOTf), or sodium bis(trifluoromethanesulfonyl)imide (NaTFSI) was used as the supporting electrolyte salt.

[2] = CO2 binding constant (KCO2) calculated from the shift of the second reduction peak in CV; details: for K[CO2] / logK[CO2]: DMF; for ΔEpeak(2): difference between the second reduction peak potentials (IId·−/IId2−) in CO2 and N2
Experimental: as §1
The CO2 binding constant (KCO2) was calculated by Eq 1: […]

[3] = UV-vis absorption, optical band gap; type: physicochemical; details: UV-vis absorption (Kubelka-Munk spectra)
Experimental: UV-vis absorption spectra were recorded on a Thermo Scientific Genesys 10S UV-vis spectrophotometer.

[4] = DMF, cited from earlier work; for E1/2 (1) in CO2: first half-wave potential; for E1/2 (1) in CO2 / E1/2 (2) in CO2 / E1/2 (2) in N2: vs. Fc^+/Fc; for E1/2 (1) in CO2 / E1/2 (2) in CO2: under CO2; for E1/2 (2) in CO2 / E1/2 (2) in N2: second half-wave potential; for E1/2 (2) in N2: under N2
[5] = Chronoamperometry: reaction rate constant between isoindigo radical anion and CO2; details: isoindigo 5 mM in DMF, 0.1 M NBu4PF6
Text: In electrochemistry, the Cottrell equation describes the current response (i) when the potential is a step function in time (t):
where i is current, n is the number of electrons transferred per molecule, A is the area of the electrode, C*0 is the bulk concentration of the redox-active isoindigo molecule, D is the diffusion coefficient, and t is time. The expected current for a diffusion limited electrochemical process following an ECE (electron transfer, chemical reaction, electron transfer) mechanism at a plane electrode under diffusion-controlled conditions is:
where n1 and n2 are the number of electrons transferred in the first and second step, respectively, and kf is the forward reaction rate constant of the chemical reaction. Here, to calculate kf after the first electron transfer, n2 and n1 are set to 1. Eq 3 then becomes:
The integrated Cottrell equation relates total charge Q with time for chronoamperometry: […]
Then, the constant k can be calculated, here k is assumed constant:
To calculate kf, the constant k is calculated using Eq 5 using potentiostatic measurements. Plugging in Eq 6, and rearranging Eq 4 gives:
The data for determining kf is shown in FIGS. 22 to 25 using 5 mM sorbent molecules in 0.1 M NBu4PF6 DMF electrolyte. The value k was determined using data under N2; kf was obtained under 1 bar 20% CO2 (0.0396 M CO2 in solution).

Compound	E1/2 in N2 (first) [1]	E1/2 in N2 (second) [1]	E1/2 in CO2 (first or single) ([1]; vs. Fc^+/Fc)	K[CO2] ([2]; 298 K)	logK[CO2] ([2]; 298 K)	ΔEpeak(2) [2]	Optical band gap [3]	logKCO2 [4]	E1/2 (1) in CO2 [4]	E1/2 (2) in CO2 [4]	E1/2 (2) in N2 [4]	other results
COC(=O)c1ccc2c(c1)NC(=O)/C2=C1/C(=O)Nc2ccc([N+](=O)[O-])cc21 [5N6MCIId, Methyl-5-nitroisoindigo-6-carboxylate]	−0.93 V and −0.93, V	−1.40 V	−0.94, V	41500 M⁻¹	4.62	0.232 V	2.08 eV					E1/2 in CO2 (second) [1]: −1.15 V
COC(=O)c1ccc2c(c1)NC(=O)/C2=C1/C(=O)Nc2cc(Br)ccc21 [6B6MCIId, Methyl 6-bromoisoindigo-6′-carboxylate]	−1.05, V	−1.55 V	−1.05 V	8.34e+08 M⁻¹	8.92	0.486 V	2.02 eV					
O=C1Nc2ccccc2/C1=C1\C(=O)Nc2cc(C(=O)O)ccc21 [6CIId, Isoindigo-6-carboxylic Acid]	−1.09, V	−1.35 V	−1.06, V	750 M⁻¹	2.87	0.129 V	2.01 eV					E1/2 in CO2 (second) [1]: −1.18 V
O=C1c2ccccc2C(=O)c2ccccc21 [AQ, anthraquinone]								13.39	−1.4 V	−1.4 V	−2.15 V	logKCO2 ([4]; listed as anthraquinone): approximately 13.4
CCCOC(=O)c1ccc2c(c1)C(=O)c1ccccc1C2=O [AQ-COO- C3H7]								2.56	−1.29 V	−1.89 V	−2 V	
O=C1c2ccccc2C(=O)c2cc(Cl)ccc21 [AQ-Cl]								2.73	−1.25 V	−1.88 V	−2 V	
CCCOc1ccc2c(c1)C(=O)c1ccccc1C2=O [AQ-O-C3H7]								11.70	−1.55 V	−1.55 V	−2.2 V	
O=C1C=C(Cl)C(=O)C(Cl)=C1 [BQ-Cl2]								1.86	−0.7 V	−1.59 V	−1.66 V	
O=C1C(Cl)=C(Cl)C(=O)C(Cl)=C1Cl [BQ-Cl4]								1.28	−0.48 V	−1.38 V	−1.42 V	
O=C1C=CC(=O)C=C1 [BQ]								18.12	−0.95 V	−0.95 V	−1.98 V	
CC1=C(C)C(=O)C(C)=C(C)C1=O [DBQ]								17.61	−1.39 V	−1.39 V	−2.39 V	
CCCCC(CC)CN1C(=O)/C(=C2/C(=O)N(CC(CC)CCCC)c3ccccc32)c2ccccc21 (stereo not shown) [NNDEHIId, N,N′-Di-(2-ethylhexyl)-isoindigo]	−1.23, V	−1.80 V	−1.16, V	4.19e+06 M⁻¹	6.62	0.350 V	2.00 eV					E1/2 in CO2 (second) [1]: −1.45 V
CCCN1C(=O)/C(=C2/C(=O)N(CCC)c3cc(Br)ccc32)c2ccc(Br)cc21 [NNDPr66DBIId, N,N′-Dipropyl-6,6′-dibromoisoindigo]	−1.07, V	−1.61 V	−1.08, V	74800 M⁻¹	4.48	0.247 V	2.02 eV					E1/2 (IId/IId·−) in N2 [1]: −1.07 V vs. Fc^+/Fc; E1/2 in CO2 (second) [1]: −1.34 V; logK[CO2] ([2]; Table 1): 4.87; kbimolecular ([5]; first CO2 binding): 3.3 M⁻¹ s⁻¹ and 3.31 M⁻¹ s⁻¹; kf (20% CO2) ([5]; forward rate constant, 20% CO2): 0.131 s⁻¹
CC(C)(C)C1=CC(=O)C=C(C(C)(C)C)C1=O [TBQ]								18.29	−1.25 V	−1.25 V	−2.29 V	
O=C1C(Cl)=C(Cl)C(=O)c2ccccc21 [p-NQ-Cl2]								2.73	−0.9 V	−1.63 V	−1.75 V	
O=C1C=CC(=O)c2ccccc21 [p-NQ]								14.74	−1.23 V	−1.23 V	−2.06 V	

Now from value to compound, other results behind:

E1/2 in N2 (first) [1]	E1/2 in N2 (second) [1]	E1/2 in CO2 (first or single) ([1]; vs. Fc^+/Fc)	K[CO2] ([2]; 298 K)	logK[CO2] ([2]; 298 K)	ΔEpeak(2) [2]	Optical band gap [3]	Compound	logKCO2 [4]	E1/2 (1) in CO2 [4]	E1/2 (2) in CO2 [4]	E1/2 (2) in N2 [4]	other results
−1.19, V	−1.67 V	−1.11 V	1.12e+09 M⁻¹	9.05	0.494 V	2.04 eV	O=C1Nc2ccccc2/C1=C1\C(=O)Nc2ccc(Br)cc21 [5BIId, 5-Bromoisoindigo]					E1/2 (IId/IId·−) in N2 [1]: −1.19 V vs. Fc^+/Fc; Experimental 1st half-wave potential in N2 ([1]; Table 5, vs. Fc^+/Fc): −1.19 V; logK[CO2] ([2]; Table 1): 9.05
−1.08 V and −1.08, V	−1.55 V	−1.08 V	4.45e+08 M⁻¹	8.65	0.470 V	1.71 eV	COc1ccc2c(c1)/C(=C1\C(=O)Nc3ccc([N+](=O)[O-])cc31)C(=O)N2 [5M5NIId, 5-Methoxyl-5′-nitroisoindigo]					
−1.08 V and −1.08, V	−1.57 V	−1.08 V	7.63e+08 M⁻¹	8.88	0.484 V	2.07 eV	O=C1Nc2ccccc2/C1=C1\C(=O)Nc2ccc([N+](=O)[O-])cc21 [5NIId, 5-Nitroisoindigo]					
−1.21, V	−1.75 V	−1.14 V	6.25e+09 M⁻¹	9.8	0.538 V	2.05 eV	O=C1Nc2ccccc2/C1=C1\C(=O)Nc2cc(Br)ccc21 [6BIId, 6-Bromoisoindigo]					
−1.14, V	−1.69 V	−1.13 V	9.13e+09 M⁻¹	9.96	0.547 V	1.97 eV	O=C1Nc2ccc(F)cc2/C1=C1\C(=O)Nc2ccc(F)cc21 [55DFIId, 5,5′-Difluoroisoindigo]					
−1.29 V and −1.29, V	−1.76 V	−1.2 V	1.13e+09 M⁻¹	9.05	0.494 V	1.78 eV	COc1ccc2c(c1)/C(=C1\C(=O)Nc3ccc(OC)cc31)C(=O)N2 [55DMIId, 5,5′-Dimethoxylisoindigo]					E1/2 (IId/IId·−) in N2 [1]: −1.29 V vs. Fc^+/Fc; logK[CO2] ([2]; Table 1): 9.05
−1.10, V	−1.68 V	−1.1 V	2.17e+10 M⁻¹	10.3	0.570 V	2.02 eV	O=C1Nc2cc(F)c(F)cc2/C1=C1\C(=O)Nc2cc(F)c(F)cc21 [5566TFIId, 5,5′,6,6′-Tetrafluoroisoindigo]					
